Read-outs that look alike come from different tables or passages of the source.
What was measured:
[1] = Multi-component pharmacokinetic study of GQD, GQD-GC and single herb extracts in rats (plasma, LC/MS/MS); type: in vivo, Sprague-Dawley rats; conditions: plasma; for AUC(0-t): po, read-out: AUClast; for half-life: read-out: T1/2 (converted); for Tmax: read-out: Tmax
Summary of the method: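 Male Sprague-Dawley rats (220–250 g, n = 10 per group) dosed orally with GQD, GQD-GC (1.0 g crude drug/mL) or single-herb decoctions. Plasma analytes quantified by LC/MS/MS in positive-ESI SRM mode. Cmax and Tmax taken from measured data, other parameters by non-compartmental or compartmental analysis; mean ± SD.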

db/db mice = assay: Evaluation of anti-diabetic effects in db/db mice; type: in vivo; conditions: P < 0.05, metformin 100 mg/kg/d
Protocol: Eight-week-old male db/db mice (30–35 g) were used, and the details were described in Supplemental Data. The mice were randomly divided into eight groups. Mice were orally administered with metformin (100 mg/kg/d, n = 6), berberine (50 mg/kg/d, n = 6), glycyrrhizic acid (80 mg/kg/d, n = 6), berberine (50 mg/kg/d) combined with low-dose of glycyrrhizic acid (50 mg/kg/d, n = 6), berberine (50 mg/kg/d) combined with high-dose of glycyrrhizic acid (80 mg/kg/d, n = 6), berberine (50 mg/kg/d) combined with Gan-Cao (2.2 g/kg/d, n = 7), and GQD (18.2 g/kg/d, n = 7) for 4 weeks. For the control group, the […] were administered with an equal volume of water. On day 28, after fasted for 12 h, retro-orbital blood samples were collected, stand for 1 h, and then centrifuged (6,000 rpm, 4°C) for 20 min to obtain serum. Biochemical indicators such as blood glucose and insulin were determined on a Mindray BS-800 analyzer (Mindray Bio-Medical Electronics Co.).
Herbal materials and extracts.
The four component herbs, Puerariae Lobatae Radix (Ge-Gen, GG), Scutellariae Radix (Huang-Qin, HQ), Coptidis Rhizoma (Huang-Lian, HL), and Glycyrrhizae Radix et Rhizoma Praeparata cum Melle (Gan-Cao, GC) were purchased from Tianheng Pharmacy. GQD was prepared by decocting the four component herbs […]
of water for three times (1.5 h, 1.5 h, 0.5 h) to obtain the extracts, followed by a pre-extraction of Ge-Gen using 200 mL of water for 0.5 h. The decoctions were combined, filtered, and concentrated in vacuum at 50 °C. GQD-GC was prepared using the same procedure, except that Gan-Cao was removed from the formula. Final concentration of the GQD-GC extract was equivalent to 1.0 g of the crude drugs per mL. For single herb extracts, the herbs were decocted in 8-fold volume of water for three times (1.5 h, 1.5 h, 0.5 h) and then concentrated. […]
For anti-diabetic study, Eight-week-old male db/db mice (30–35 g) were purchased from Card Vince Laboratory animal Co., Ltd. The mice were bred in a cage (318 × 202 × 135 mm) in a breeding room at 25 °C, 60 ± 5% humidity, and a 12-h dark-light […]
On day 28, db/db mice were fasted for 12 h, and blood was collected and centrifuged to obtain serum for insulin and biochemical tests. After that, 150 µL of plasma was prepared by adding 150 µL of internal standard solution, 150 µL of methanol, and 300 µL of acetonitrile. The processing method was consistent with sample preparation for […]
3.1. Optimization of chromatographic separation
Different solvents (67% methanol, and 100% methanol) were compared to effectively extract both hydrophilic and hydrophobic compounds of GQD. […]
better extraction recovery for most compounds. […]

P-glycoprotein (P-gp) = target: T1, P-glycoprotein (P-gp) (Homo sapiens, UniProt P08183); assay: P-gp inhibitor and inducer experiments on Caco-2 cell monolayer; type: in vitro ADME; conditions: added together with BER 5 μM; verapamil 5 μM; rifampicin 5, 20, 50 μM
T1 construct: host or cells: Caco-2 (human colon adenocarcinoma) monolayers, passages 24-35
T1 sequence (P08183 whole entry): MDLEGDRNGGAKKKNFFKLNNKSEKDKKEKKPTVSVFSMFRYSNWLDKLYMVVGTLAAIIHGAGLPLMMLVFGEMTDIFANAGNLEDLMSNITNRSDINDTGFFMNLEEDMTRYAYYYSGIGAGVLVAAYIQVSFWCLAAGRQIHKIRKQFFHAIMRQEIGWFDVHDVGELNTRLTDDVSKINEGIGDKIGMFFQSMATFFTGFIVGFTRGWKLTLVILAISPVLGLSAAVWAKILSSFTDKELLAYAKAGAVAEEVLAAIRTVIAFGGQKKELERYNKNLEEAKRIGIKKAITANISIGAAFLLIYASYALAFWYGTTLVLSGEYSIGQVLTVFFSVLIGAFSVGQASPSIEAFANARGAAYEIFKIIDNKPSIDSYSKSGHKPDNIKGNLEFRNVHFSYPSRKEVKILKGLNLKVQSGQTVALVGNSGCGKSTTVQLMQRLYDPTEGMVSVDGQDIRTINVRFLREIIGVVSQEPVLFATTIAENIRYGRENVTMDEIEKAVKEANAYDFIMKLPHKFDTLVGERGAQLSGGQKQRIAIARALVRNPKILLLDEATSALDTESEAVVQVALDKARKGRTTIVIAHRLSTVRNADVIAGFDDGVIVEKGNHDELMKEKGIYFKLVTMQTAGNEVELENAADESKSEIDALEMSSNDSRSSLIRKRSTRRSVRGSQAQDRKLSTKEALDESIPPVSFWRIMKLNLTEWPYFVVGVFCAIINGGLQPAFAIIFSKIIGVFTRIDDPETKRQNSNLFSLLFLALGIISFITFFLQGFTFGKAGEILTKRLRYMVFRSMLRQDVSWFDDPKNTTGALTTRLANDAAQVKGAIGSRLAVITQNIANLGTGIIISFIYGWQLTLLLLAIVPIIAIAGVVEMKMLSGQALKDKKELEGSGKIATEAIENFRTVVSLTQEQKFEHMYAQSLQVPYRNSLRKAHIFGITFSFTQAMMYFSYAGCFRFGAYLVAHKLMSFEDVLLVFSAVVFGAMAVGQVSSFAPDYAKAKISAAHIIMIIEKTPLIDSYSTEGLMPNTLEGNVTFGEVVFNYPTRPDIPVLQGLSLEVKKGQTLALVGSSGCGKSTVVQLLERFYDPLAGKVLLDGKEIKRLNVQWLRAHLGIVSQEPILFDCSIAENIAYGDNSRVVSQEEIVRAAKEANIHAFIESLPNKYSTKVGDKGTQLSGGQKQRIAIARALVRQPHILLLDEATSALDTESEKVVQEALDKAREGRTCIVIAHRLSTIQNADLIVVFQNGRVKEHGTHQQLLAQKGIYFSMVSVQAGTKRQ
Protocol: The final concentration of GQD, GQD−GC, and Huang-Lian water extracts were 32, 28, and 6 μg/mL, respectively. […]
containing glucose (25 mM) and HEPES (10 mM). The final concentration of berberine was 5 µM. The final concentration of DMSO was below 1% (v/v). […]
inducer of Caco-2 cells, respectively. For the inhibitor experiments, the Caco-2 cells were cultivated in DMEM until the 21st day. After removal of the medium, the cells were incubated for 30 minutes with HBSS containing 5 µM of verapamil. For the inducer experiments, the cells were cultivated in DMEM until the 18th day, and then […]
was removed on the 21st day, and the cells were then incubated for 30 min with HBSS.
Berberine and glycyrrhizic acid were added to the system following HBSS incubation.
For all bidirectional transport assays, samples (300 µL) were collected after 30, 60, 90, […]
with an equal volume of HBSS. The samples were freeze-dried and then dissolved in 300 µL of methanol. The solutions were filtered through 0.22-µm membranes before […]
3. Inhibitor and inducer experiments […]
respectively. For the inhibition experiments, Caco-2 cells were cultivated in DMEM until the 21st day. After removal of the medium, the cells were incubated for 30 minutes with HBSS containing verapamil (5 µM). For induction experiments, the cells were cultivated in DMEM until the 18th day, and then cultivated in DMEM […]
The medium was removed on the 21st day, and the cells were then incubated for 30 min with HBSS. Berberine and glycyrrhizic acid were added to the system following HBSS incubation.

[2] = male, Sprague-Dawley, rat, 18.9 g/kg, GQD group: rats, oral GQD extract 18.9 g/kg
[3] = male, Sprague-Dawley, rat, GC (Gan-Cao) group: rats, oral extract 2.36 g/kg
[4] = male, Sprague-Dawley, rat, GQD group: rats, oral GQD extract 18.9 g/kg
[5] = male, Sprague-Dawley, rat, GG (Ge-Gen) group: rats, oral extract 9.45 g/kg
[6] = male, Sprague-Dawley, rat, GQD-GC group (GQD without Gan-Cao): rats, oral 16.5 g/kg

Structure (SMILES): CC1(C)[C@@H](O)CC[C@]2(C)[C@H]3C(=O)C=C4[C@@H]5C[C@@](C)(C(=O)O)CC[C@]5(C)CC[C@@]4(C)[C@]3(C)CC[C@@H]12 [Compound 40, glycyrrhetinic acid]
- Cmax ([1]; GQD group: rats, oral GQD extract 18.9 g/kg): 371.14 ± 66.69 ng/mL
- AUC(0-t) ([1]; male, Sprague-Dawley, rat, 2.36 g/kg, GC (Gan-Cao) group: rats, oral extract 2.36 g/kg): 9630 ± 778 ng·h/mL
- AUC(0-t) [1, 2]: 8480 ± 1300 ng·h/mL
- Cmax ([1]; male, Sprague-Dawley, rat, GC (Gan-Cao) group: rats, oral extract 2.36 g/kg, read-out: Cmax): 359 ± 37.8 ng/mL
- half-life [1, 3]: 6.87 ± 2.47 h
- Tmax [1, 3]: 13.4 ± 0.78 h
- half-life [1, 4]: 7.96 ± 2.56 h

Structure (SMILES): COc1ccc(C2=CC(=O)OC2Cc2ccc(O)cc2)c(OC2OC(CO)C(O)C(O)C2O)c1 [Compound 41, (4S)-puerol B 2″-O-glucopyranoside]
- AUC(0-t) ([1]; male, Sprague-Dawley, rat, 9.45 g/kg, GG (Ge-Gen) group: rats, oral extract 9.45 g/kg): 67.3 ± 28.7 ng·h/mL
- AUC(0-t) ([1]; male, Sprague-Dawley, rat, 16.5 g/kg, GQD-GC group (GQD without Gan-Cao): rats, oral 16.5 g/kg): 18.9 ± 4.09 ng·h/mL
- AUC(0-t) [1, 2]: 37.5 ± 21.1 ng·h/mL
- Cmax ([1]; male, Sprague-Dawley, rat, GG (Ge-Gen) group: rats, oral extract 9.45 g/kg, read-out: Cmax): 14.9 ± 9.76 ng/mL
- half-life [1, 5]: 9.31 ± 2.19 h
- Tmax [1, 5]: 0.52 ± 1.11 h
- Cmax ([1]; male, Sprague-Dawley, rat, GQD group: rats, oral GQD extract 18.9 g/kg, read-out: Cmax): 10.9 ± 9.4 ng/mL
- half-life [1, 4]: 7.98 ± 2.88 h
- Tmax [1, 4]: 0.52 ± 0.26 h
- Cmax ([1]; male, Sprague-Dawley, rat, GQD-GC group (GQD without Gan-Cao): rats, oral 16.5 g/kg, read-out: Cmax): 11.1 ± 4.41 ng/mL
- half-life [1, 6]: 6.45 ± 5.16 h
- Tmax [1, 6]: 0.53 ± 1.2 h

Structure (SMILES): CN(C)C(=N)N=C(N)N [Metformin, metformin, reference compound]
- 4-week body weight (db/db mice): significant decrease

Structure (SMILES): CO[C@H]1/C=C/O[C@@]2(C)Oc3c(C)c(O)c4c(O)c(c(/C=N/N5CCN(C)CC5)c(O)c4c3C2=O)NC(=O)/C(C)=C\C=C\[C@H](C)[C@H](O)[C@@H](C)[C@@H](O)[C@@H](C)[C@H](OC(C)=O)[C@@H]1C [rifampicin, reference compound]
- effect on the efflux of BER (P-glycoprotein (P-gp)): increased
- effect on the influx of BER (P-glycoprotein (P-gp)): decreased

Reference: article PMC6018403 (Frontiers in Pharmacology, 2018)
